# Source: article PMC7886321, “Deciphering the LRRK code: LRRK1 and LRRK2 phosphorylate distinct Rab proteins and are regulated by diverse mechanisms” (Biochemical Journal, 2021)
# Experiments:
# LRRK2 = target: T1, LRRK2 (Homo sapiens, UniProt Q5S007); test: HEK293 overexpression, pRab10 Thr73 and pSer935 LRRK2 immunoblot; assay type: cell-based
# T1 construct: wild type LRRK2 overexpressed in HEK293 cells
# LRRK1 = target: T2, LRRK1 (Homo sapiens, UniProt Q38SD2); test: in vitro kinase assay, Rab7A Ser72 phosphorylation by immunoblot, […] ATP; assay type: biochemical
# T2 construct: recombinant LRRK1, residues 28 to 2015
# T2 sequence (Q38SD2 28-2015): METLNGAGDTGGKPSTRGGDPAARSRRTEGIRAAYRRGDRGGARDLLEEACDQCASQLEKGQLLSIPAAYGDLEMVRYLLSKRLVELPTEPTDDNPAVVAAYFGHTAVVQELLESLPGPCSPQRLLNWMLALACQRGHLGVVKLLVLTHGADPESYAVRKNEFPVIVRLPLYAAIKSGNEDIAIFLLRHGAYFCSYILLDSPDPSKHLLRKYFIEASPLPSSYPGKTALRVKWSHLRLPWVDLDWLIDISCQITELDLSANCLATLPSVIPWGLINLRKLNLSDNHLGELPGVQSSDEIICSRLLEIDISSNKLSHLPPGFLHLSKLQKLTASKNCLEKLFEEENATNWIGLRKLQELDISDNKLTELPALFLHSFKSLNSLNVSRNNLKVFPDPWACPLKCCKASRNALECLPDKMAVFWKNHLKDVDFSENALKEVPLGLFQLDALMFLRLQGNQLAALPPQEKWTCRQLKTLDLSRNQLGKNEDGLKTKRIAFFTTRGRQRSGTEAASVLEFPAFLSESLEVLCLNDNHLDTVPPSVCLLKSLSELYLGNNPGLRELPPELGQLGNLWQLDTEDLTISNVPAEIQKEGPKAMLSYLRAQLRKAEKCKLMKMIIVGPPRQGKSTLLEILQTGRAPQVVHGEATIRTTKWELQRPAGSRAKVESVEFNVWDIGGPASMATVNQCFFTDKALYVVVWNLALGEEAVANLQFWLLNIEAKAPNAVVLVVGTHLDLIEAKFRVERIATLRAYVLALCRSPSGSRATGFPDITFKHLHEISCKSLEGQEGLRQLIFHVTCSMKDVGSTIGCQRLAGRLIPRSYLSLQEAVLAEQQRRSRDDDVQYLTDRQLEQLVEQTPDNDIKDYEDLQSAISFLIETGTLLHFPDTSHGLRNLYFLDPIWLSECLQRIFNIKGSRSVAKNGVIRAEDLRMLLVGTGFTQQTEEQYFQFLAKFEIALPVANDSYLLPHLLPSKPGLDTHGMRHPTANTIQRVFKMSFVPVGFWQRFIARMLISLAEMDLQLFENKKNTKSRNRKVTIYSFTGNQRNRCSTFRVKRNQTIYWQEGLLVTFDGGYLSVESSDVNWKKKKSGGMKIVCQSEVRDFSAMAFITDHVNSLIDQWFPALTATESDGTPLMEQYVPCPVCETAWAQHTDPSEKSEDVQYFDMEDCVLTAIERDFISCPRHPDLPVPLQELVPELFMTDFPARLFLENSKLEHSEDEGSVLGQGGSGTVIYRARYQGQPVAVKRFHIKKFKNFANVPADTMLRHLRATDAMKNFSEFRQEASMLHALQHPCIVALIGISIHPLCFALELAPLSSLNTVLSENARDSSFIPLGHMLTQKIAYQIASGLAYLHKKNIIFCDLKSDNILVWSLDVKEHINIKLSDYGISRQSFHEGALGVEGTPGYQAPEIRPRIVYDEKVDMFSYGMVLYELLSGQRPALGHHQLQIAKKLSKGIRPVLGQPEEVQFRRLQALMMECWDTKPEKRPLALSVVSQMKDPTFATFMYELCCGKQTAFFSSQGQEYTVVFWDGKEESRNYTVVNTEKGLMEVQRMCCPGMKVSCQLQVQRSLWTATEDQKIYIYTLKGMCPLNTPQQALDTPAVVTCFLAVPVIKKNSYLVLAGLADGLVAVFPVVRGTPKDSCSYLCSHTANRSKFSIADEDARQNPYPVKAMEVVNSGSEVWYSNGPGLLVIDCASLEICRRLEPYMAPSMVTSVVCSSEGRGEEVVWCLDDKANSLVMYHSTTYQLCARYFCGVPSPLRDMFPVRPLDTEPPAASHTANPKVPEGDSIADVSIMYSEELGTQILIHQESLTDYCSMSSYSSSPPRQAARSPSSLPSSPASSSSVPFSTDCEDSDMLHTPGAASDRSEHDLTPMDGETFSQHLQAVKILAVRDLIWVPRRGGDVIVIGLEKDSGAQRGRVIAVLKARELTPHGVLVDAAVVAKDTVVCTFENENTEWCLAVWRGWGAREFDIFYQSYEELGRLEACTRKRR
# T1 sequence (Q5S007 whole entry): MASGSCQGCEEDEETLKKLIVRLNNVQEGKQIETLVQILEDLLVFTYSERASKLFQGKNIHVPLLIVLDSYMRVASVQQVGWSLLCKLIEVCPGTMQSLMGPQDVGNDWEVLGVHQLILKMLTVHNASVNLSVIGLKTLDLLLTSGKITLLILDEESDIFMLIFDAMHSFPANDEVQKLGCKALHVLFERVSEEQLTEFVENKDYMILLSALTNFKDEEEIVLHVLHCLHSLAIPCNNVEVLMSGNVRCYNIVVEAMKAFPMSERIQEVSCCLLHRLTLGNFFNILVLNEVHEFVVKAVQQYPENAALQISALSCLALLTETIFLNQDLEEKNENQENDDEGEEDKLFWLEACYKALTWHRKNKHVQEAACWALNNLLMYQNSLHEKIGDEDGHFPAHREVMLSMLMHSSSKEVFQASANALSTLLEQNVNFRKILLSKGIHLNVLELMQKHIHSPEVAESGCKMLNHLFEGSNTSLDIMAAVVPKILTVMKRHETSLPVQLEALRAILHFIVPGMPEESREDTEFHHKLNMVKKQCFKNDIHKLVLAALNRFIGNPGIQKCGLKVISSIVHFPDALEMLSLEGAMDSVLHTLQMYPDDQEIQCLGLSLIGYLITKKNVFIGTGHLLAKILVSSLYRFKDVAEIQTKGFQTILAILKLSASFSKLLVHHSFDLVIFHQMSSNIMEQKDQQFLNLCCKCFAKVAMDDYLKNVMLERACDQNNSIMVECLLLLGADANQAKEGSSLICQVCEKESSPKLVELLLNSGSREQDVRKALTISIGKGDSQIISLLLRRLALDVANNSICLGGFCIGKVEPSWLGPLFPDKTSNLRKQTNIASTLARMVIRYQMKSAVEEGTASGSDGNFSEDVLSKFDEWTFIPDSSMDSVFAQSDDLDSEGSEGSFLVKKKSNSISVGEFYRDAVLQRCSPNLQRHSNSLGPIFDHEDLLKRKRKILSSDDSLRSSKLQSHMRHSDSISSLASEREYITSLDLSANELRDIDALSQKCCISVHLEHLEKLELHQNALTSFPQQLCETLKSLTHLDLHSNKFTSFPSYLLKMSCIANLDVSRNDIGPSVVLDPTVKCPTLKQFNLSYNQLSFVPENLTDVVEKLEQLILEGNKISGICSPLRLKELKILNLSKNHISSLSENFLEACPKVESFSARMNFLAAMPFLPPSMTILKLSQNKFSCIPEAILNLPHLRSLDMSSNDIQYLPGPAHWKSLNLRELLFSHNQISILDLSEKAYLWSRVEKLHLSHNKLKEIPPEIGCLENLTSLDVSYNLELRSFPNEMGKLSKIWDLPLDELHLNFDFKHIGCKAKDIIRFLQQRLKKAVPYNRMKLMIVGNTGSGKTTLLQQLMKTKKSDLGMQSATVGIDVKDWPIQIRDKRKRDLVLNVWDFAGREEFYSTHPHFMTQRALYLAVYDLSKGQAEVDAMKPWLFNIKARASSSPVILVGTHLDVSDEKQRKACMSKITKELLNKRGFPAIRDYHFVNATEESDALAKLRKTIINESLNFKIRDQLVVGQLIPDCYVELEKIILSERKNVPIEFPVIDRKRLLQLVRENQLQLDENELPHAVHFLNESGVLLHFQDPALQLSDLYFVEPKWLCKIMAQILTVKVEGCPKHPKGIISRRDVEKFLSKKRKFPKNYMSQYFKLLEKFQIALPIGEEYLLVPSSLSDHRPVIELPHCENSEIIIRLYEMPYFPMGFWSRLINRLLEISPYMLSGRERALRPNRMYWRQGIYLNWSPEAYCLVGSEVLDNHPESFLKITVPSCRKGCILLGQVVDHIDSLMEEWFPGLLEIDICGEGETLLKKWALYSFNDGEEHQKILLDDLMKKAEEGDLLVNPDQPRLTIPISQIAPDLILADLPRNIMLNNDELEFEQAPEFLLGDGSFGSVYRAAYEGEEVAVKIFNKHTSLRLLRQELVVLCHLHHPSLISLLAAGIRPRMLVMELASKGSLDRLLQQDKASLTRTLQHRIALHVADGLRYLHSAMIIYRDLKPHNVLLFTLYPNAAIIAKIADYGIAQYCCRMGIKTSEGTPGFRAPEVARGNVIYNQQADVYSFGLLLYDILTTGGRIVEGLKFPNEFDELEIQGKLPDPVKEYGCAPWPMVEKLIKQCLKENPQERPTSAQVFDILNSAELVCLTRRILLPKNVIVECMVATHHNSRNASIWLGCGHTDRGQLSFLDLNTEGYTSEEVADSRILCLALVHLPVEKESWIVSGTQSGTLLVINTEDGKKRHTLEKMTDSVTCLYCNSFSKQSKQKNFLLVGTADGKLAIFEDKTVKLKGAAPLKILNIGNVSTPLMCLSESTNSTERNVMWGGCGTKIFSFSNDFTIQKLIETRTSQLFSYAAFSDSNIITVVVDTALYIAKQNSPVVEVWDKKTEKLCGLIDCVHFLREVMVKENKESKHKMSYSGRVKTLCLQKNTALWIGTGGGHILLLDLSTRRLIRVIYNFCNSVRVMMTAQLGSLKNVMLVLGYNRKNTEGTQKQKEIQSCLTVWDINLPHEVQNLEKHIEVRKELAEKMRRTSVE
Structure (SMILES),"HEK293 overexpression, pRab10 Thr73 and pSer935 LRRK2 immunoblot (LRRK2)",IC50 (LRRK1) [nM]
O=C(Nc1cccnc1)c1cc(-c2ccnc(F)c2)ccc1OCc1ccccc1 [GSK2578215A],All inhibitors ablated LRRK2-mediated phosphorylation of Rab10 at Thr73 and LRRK2 at Ser935 in parallel experiments.,
Cc1ccc(C(=O)Nc2ccc(CN3CCN(C)CC3)c(C(F)(F)F)c2)cc1C#Cc1cnc2[nH]ncc2c1 [GZD-824],,~20
COc1cc(C(=O)N2CCC(N3CCN(C)CC3)CC2)ccc1Nc1ncc2c(n1)N(C)c1ccccc1C(=O)N2C [LRRK2-IN1],All inhibitors ablated LRRK2-mediated phosphorylation of Rab10 at Thr73 and LRRK2 at Ser935 in parallel experiments.,
